Test results from PubChem BioAssay (NCI).
Several values for one entry are separate records, joined by “and”; a condition that tells them apart may be missing. Equal entries are not always repeated.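 Interpolation was linear, between the two tested concentrations surrounding the appropriate level; five concentrations were tested over 48 hours in 96-well plates. Abbreviation: GI50, concentration required for 50% inhibition of growth. The concentration for full growth arrest is given as TGI.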

Key:
Assay in all cases: inhibition of tumour cell growth, NCI panel, 48 h
[1] = system: HT29 colon
[2] = system: NCI-H226 lung
[3] = system: NCI-H23 lung
[4] = system: SF-295 CNS
[5] = system: SK-MEL-28 melanoma
[6] = system: SK-OV-3 ovarian
[7] = system: SN12C renal
[8] = system: SW-620 colon
[9] = system: TK-10 renal
[10] = system: UO-31 renal

COc1ccc(C#Cc2ccccc2C#CCCCCO)cc1
GI50 [1]: 12.3 µM
TGI [1]: 24.8 µM
GI50 [2]: 17.3 µM
TGI [2]: 36.1 µM
GI50 [3]: 19.2 µM
TGI [3]: 40.5 µM
GI50 [4]: 18.7 µM
TGI [4]: 34.6 µM
GI50 [5]: 12.2 µM
TGI [5]: 24.8 µM
GI50 [6]: 19.9 µM
TGI [6]: 39.7 µM
GI50 [7]: 11 µM
TGI [7]: 23.7 µM
GI50 [8]: 17.8 µM
TGI [8]: 34.8 µM
GI50 [9]: 16.7 µM
TGI [9]: 35.2 µM
GI50 [10]: 21.2 µM
TGI [10]: 39.6 µM

COC(=O)[C@@H](NC(=O)NC(=O)NC(=O)CI)C(C)C
GI50 [1]: 2.01 µM
TGI [1]: 4.03 µM
GI50 [2]: 16.2 µM
TGI [2]: 38.4 µM
GI50 [3]: 16.1 µM
TGI [3]: 33.8 µM
GI50 [4]: 17.9 µM
TGI [4]: 40.6 µM
GI50 [5]: 1.88 µM
TGI [5]: 3.85 µM
GI50 [6]: 18.3 µM
TGI [6]: 33 µM
GI50 [7]: 5.46 µM
TGI [7]: 25.7 µM
GI50 [8]: 2.04 µM
TGI [8]: 4.19 µM
GI50 [9]: 7.65 µM
TGI [9]: 20.5 µM
GI50 [10]: 1.67 µM
TGI [10]: 3.2 µM

CN1C(=O)c2c(ccc3c2OCO3)C2C(O)Cc3cc4c(cc3C21)OCO4 (stereo not given)
TGI [1]: 10.1 µM
TGI [2]: 5.93 µM
TGI [3]: > 100 µM
TGI [4]: 4.63 µM
TGI [5]: > 100 µM
TGI [6]: 8.37 µM
TGI [7]: > 100 µM
TGI [8]: > 100 µM
TGI [9]: > 100 µM
TGI [10]: > 100 µM

N#Cc1cc(C#N)c(Cl)nc1N
TGI [1]: > 10 µM
TGI [2]: > 10 µM
TGI [3]: > 10 µM
TGI [4]: > 10 µM
TGI [5]: > 10 µM
TGI [6]: > 10 µM
TGI [7]: > 10 µM
TGI [8]: > 10 µM
TGI [9]: > 10 µM
TGI [10]: > 10 µM

CN1CCN(c2ccc(C(=O)Nc3n[nH]c4ccc(Cc5cc(F)cc(F)c5)cc34)c(NC3CCOCC3)c2)CC1
GI50 [1]: 0.971 µM and 1.06 µM
TGI [1]: 3.38 µM and 2.46 µM
GI50 [2]: 1.47 µM and 1.36 µM
TGI [2]: > 10 µM and 3.11 µM
GI50 [3]: 2.63 µM and 1.61 µM
TGI [3]: > 10 µM and 3.54 µM
GI50 [4]: 3.94 µM and 1.45 µM
TGI [4]: > 10 µM and 3.11 µM
GI50 [5]: 1.6 µM and 1.58 µM
TGI [5]: 3.15 µM and 2.95 µM
GI50 [6]: 6.65 µM and 1.7 µM
TGI [6]: > 10 µM and 3.19 µM
GI50 [7]: 2.6 µM and 1.34 µM
TGI [7]: > 10 µM and 2.93 µM
GI50 [8]: 1.32 µM and 1.33 µM
TGI [8]: 3.44 µM and 2.76 µM
GI50 [9]: 2.35 µM and 1.42 µM
TGI [9]: > 10 µM and 2.78 µM
GI50 [10]: 1.03 µM and 1.17 µM
TGI [10]: 2.28 µM and 2.61 µM

O=C(c1ccccc1)c1c(NCC(O)CN2CCCC2)n(Cc2ccccc2)c(=O)n(Cc2ccccc2)c1=O (stereo not given)
GI50 [1]: 17.3 µM
TGI [1]: 33.6 µM
GI50 [2]: 18.6 µM
TGI [2]: 48.4 µM
GI50 [3]: 20 µM
TGI [3]: 44.1 µM
GI50 [4]: 18 µM
TGI [4]: 33.7 µM
GI50 [5]: 17.6 µM
TGI [5]: 32.3 µM
GI50 [6]: 34 µM
TGI [6]: > 100 µM
GI50 [7]: 19.3 µM
TGI [7]: 39.1 µM
GI50 [8]: 15.6 µM
TGI [8]: 30.4 µM
GI50 [9]: 19.3 µM
TGI [9]: 41.6 µM
GI50 [10]: 18.8 µM
TGI [10]: 40.2 µM

Cc1[nH]ncc1-c1cc2nc(C3CC4CCN3CC4)[nH]c(=O)c2s1 (stereo not given)
GI50 [1]: 3.85 µM
TGI [1]: > 100 µM
GI50 [2]: 2.82 µM
TGI [2]: > 100 µM
GI50 [3]: 3.82 µM
TGI [3]: > 100 µM
GI50 [4]: 2.88 µM
TGI [4]: > 100 µM
GI50 [5]: 4.94 µM
TGI [5]: > 100 µM
GI50 [6]: 14.5 µM
TGI [6]: > 100 µM
GI50 [7]: 3.31 µM
TGI [7]: > 100 µM
GI50 [8]: 2.65 µM
TGI [8]: > 100 µM
GI50 [9]: 1.9 µM
TGI [9]: > 100 µM
GI50 [10]: 2.91 µM
TGI [10]: > 100 µM

O=[N+]([O-])c1ccc(Nc2ccccc2-c2ccccc2)c2nonc12
GI50 [1]: 19.3 µM
TGI [1]: 47.2 µM
GI50 [2]: 14 µM
TGI [2]: 40.5 µM
GI50 [3]: 8.63 µM
TGI [3]: 26.1 µM
GI50 [4]: 11.7 µM
TGI [4]: 29.7 µM
GI50 [5]: 17.2 µM
TGI [5]: 45.3 µM
GI50 [6]: 22 µM
TGI [6]: > 75.7 µM
GI50 [7]: 12.4 µM
TGI [7]: 28.2 µM
GI50 [8]: 18 µM
TGI [8]: 44.8 µM
GI50 [9]: 22.8 µM
TGI [9]: 59.6 µM
GI50 [10]: 8.14 µM
TGI [10]: 29.9 µM
